{
  "source": "patent US8673816B2",
  "about": "“Surfactants in agrochemical formulations” (Croda, Inc., priority 2009, dated 2014)",
  "system": "oil seed rape plants (Brassica napus)",
  "test": "Greenhouse trial of surfactants as adjuvants for Glyphosate",
  "assay_type": "in vivo",
  "details": "for % control: fresh weight vs untreated controls",
  "source_text": "A greenhouse trial was run to evaluate the effectiveness of the surfactants of the invention as adjuvants for Glyphosate in controlling the growth of (non-roundup ready) oil seed rape plants (Brassica napus). The trial used surfactant of the invention (SE1) and control adjuvant (FAE) at 3 rates, with 3 rates of glyphosate application, and controls including 3 glyphosate rates without surfactant, all grown in randomised blocks. 10 replications were used for each application, with 1 pot (7×7×8 cm) per plot and at least 4 plants per pot, in Levington M2 medium. The greenhouse conditions of temperature and humidity were recorded and watering was carried out by capillary matting. Additional lighting was provided over natural daylight. The glyphosate treatments were carried out using a pre-calibrated Mardrive greenhouse cabinet sprayer at a volume rate of about 200 I.ha^−1. […]\nThe type and application rate (Rate in g.ha^−1) of nominally 100% adjuvant, the application rate (Rate in g.ha^−1 active) of glyphosate, the glyphosate to adjuvant weight ratio (G:A) applied to the test plants and the visual assessment (%), and the % control are set out in Table AEA1 below.",
  "key": {"[1]": {"details": "28 d, glyphosate 125 g.ha^−1, no adjuvant"}, "[2]": {"details": "28 d, glyphosate 250 g.ha^−1, no adjuvant"}, "[3]": {"details": "28 d, glyphosate 500 g.ha^−1, no adjuvant"}},
  "data": [
    {"smiles": "O=C(O)CNCP(=O)(O)O", "note": "[Glyphosate, N-phosphonomethyl glycine]", "values": [
      {"measurement": "% damage", "setting": "15 d, glyphosate 125 g.ha^−1, no adjuvant", "value": 0, "unit": "%"},
      {"measurement": "% damage", "setting": "15 d, glyphosate 250 g.ha^−1, no adjuvant", "value": 1.5, "unit": "%"},
      {"measurement": "% damage", "setting": "15 d, glyphosate 500 g.ha^−1, no adjuvant", "value": 11, "unit": "%"},
      {"measurement": "% damage", "setting": "21 d, glyphosate 125 g.ha^−1, no adjuvant", "value": 5, "unit": "%"},
      {"measurement": "% damage", "setting": "21 d, glyphosate 250 g.ha^−1, no adjuvant", "value": 5, "unit": "%"},
      {"measurement": "% damage", "setting": "21 d, glyphosate 500 g.ha^−1, no adjuvant", "value": 33, "unit": "%"},
      {"measurement": "% control", "setting": "[1]", "value": 0.2, "unit": "%"},
      {"measurement": "% control", "setting": "[2]", "value": "−6.4", "unit": "%"},
      {"measurement": "% control", "setting": "[3]", "value": 49.5, "unit": "%"},
      {"measurement": "% damage", "setting": "[1]", "value": 0, "unit": "%"},
      {"measurement": "% damage", "setting": "[2]", "value": 0, "unit": "%"},
      {"measurement": "% damage", "setting": "[3]", "value": 52, "unit": "%"}
    ]}
  ]
}
